Some targets named below: Cytochrome P450 2D6 (Homo sapiens, UniProt P10635); Cytochrome P450 2C9 (Homo sapiens, UniProt P11712); Cytochrome P450 3A4 (Homo sapiens, UniProt P08684).
Another test concerns the target Cytochrome P450 2C19 (Homo sapiens, UniProt P33261). In words: Cytochrome panel assay with activity outcomes. Panel member name: p450-cyp2c19 Compounds with AC50 equal or less than 10 uM are considered active. Format: functional. To be noted: read-out: AC50.
For the next test, the target named is T1, Cytochrome P450 1A2 (Homo sapiens, UniProt P05177).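 Also: PubChem cytochrome P450 panel assay, CYP1A2 panel member.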
T1 sequence (P05177 whole entry): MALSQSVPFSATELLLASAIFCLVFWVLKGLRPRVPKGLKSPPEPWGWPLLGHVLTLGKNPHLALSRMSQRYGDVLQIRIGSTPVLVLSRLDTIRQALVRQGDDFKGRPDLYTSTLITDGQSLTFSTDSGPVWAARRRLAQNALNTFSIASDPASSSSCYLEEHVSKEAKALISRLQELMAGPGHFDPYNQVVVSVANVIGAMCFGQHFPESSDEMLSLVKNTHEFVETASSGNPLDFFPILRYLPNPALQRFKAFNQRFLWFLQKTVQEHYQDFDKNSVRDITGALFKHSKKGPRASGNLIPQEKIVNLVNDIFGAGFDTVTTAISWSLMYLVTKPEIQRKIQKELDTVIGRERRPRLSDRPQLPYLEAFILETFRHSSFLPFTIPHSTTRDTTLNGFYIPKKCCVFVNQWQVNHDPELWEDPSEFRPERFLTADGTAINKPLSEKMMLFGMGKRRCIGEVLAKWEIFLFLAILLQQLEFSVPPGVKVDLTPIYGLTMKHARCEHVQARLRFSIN

Test [1] is described as follows: cytotoxicity toward NIH3T3 fibroblasts, dose response, counter-screen, cell-based, ATP luminescence, mouse fibroblasts (AID 2010).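 Also: cells exposed to compound for about 90 hours before reading.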 It is filed as functional. For orientation: The purpose of a counterscreen is to sort out artefacts and off-target activity.
The target in another test is T2, Streptokinase A (Streptococcus pyogenes serotype M1, UniProt P10520).
T2 sequence (P10520 whole entry): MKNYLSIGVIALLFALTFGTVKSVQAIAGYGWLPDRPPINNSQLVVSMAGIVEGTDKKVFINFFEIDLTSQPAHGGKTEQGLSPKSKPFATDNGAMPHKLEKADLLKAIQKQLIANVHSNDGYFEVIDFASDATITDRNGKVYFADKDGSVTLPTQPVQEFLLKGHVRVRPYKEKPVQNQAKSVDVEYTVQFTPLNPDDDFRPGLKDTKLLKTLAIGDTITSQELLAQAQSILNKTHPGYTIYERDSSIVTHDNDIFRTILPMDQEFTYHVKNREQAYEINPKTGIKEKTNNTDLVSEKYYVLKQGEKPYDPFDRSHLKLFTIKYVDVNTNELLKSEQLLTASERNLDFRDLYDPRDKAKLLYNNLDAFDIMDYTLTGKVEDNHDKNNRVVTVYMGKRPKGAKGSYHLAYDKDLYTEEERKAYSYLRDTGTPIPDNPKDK
As to the kind of experiment: S. pyogenes streptokinase expression inhibitors, potency, dose response, plasminogen activation absorbance, OD405 (AID 1914).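 Also: secreted streptokinase activity via plasminogen activation per viability signal from cell pellet.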 It is filed as functional, Streptococcus pyogenes M1 GAS.

Test [2] can be described thus: inhibitors of intracellular T. cruzi replication, confirmation, NIH3T3 host cells, beta-gal luminescence (AID 2044).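 Also: intracellular parasites grown in NIH/3T3 mouse fibroblasts as host cells; luminescent beta-galactosidase reporter signal from transgenic T. cruzi replicating inside host cells; inhibitors lower the luminescence signal.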 It is filed as functional, cell-based.
The next test deals with Streptococcus. As to the kind of experiment: Group A Streptococcus viability loss, dose response, counter-screen for streptokinase expression inhibitor project, luminescence, BacTiterGlo (AID 1915).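 Also: potency for reduction of bacterial viability or growth.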 It is filed as functional, organism-based.
Test [3] deals with Streptococcus sp. 'group A'. As to the kind of experiment: growth inhibition of control SK(-) GAS strain, dose response, counter-screen for streptokinase expression inhibitor project, luminescence, kanamycin, BacTiterGlo, confirmation (AID 1900). Format: functional, organism-based.
Test [4] concerns the target T3, Corticotropin-releasing factor receptor 2/Corticotropin-releasing factor-binding protein (Homo sapiens, UniProt P24387+Q13324).
T3 sequence (Q13324 whole entry): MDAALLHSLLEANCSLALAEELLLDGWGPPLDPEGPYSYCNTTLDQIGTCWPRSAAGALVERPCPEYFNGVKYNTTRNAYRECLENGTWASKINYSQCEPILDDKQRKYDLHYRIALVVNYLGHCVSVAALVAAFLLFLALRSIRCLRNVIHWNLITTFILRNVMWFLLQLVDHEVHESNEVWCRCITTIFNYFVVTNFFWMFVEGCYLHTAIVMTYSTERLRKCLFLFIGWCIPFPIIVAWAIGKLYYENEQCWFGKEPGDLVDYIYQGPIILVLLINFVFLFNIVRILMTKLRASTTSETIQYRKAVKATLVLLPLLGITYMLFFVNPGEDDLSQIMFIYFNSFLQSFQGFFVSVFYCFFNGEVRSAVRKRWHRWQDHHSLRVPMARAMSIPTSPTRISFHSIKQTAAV
T3 sequence (P24387 whole entry): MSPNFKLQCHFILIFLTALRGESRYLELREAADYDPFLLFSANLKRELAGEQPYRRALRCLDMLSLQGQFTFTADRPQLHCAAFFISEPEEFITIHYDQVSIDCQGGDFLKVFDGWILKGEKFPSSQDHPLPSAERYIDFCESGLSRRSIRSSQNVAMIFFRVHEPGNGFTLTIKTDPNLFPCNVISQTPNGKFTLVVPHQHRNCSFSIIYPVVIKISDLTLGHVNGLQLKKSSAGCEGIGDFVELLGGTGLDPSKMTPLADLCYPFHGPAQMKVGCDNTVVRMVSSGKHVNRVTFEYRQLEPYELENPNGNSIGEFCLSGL
In words: activators of CRF receptor 2 with binding protein – uHTS hits, confirmation (AID 602473). Format: functional. To be noted: read-out: EC50_Mean.

Test [5] addresses T3, Corticotropin-releasing factor receptor 2/Corticotropin-releasing factor-binding protein. In words: Dose Response confirmation of uHTS hits for small molecule antagonists of the CRF-binding protein and CRF-R2 receptor complex. It is filed as functional. Conditions: read-out: IC50_Mean.

The values that follow come from ChEMBL document CHEMBL1201862, “PubChem BioAssay data set” (2004).

Activity calls are given as the source filed them.

Cytochrome P450 2C9, sequence (P11712 whole entry): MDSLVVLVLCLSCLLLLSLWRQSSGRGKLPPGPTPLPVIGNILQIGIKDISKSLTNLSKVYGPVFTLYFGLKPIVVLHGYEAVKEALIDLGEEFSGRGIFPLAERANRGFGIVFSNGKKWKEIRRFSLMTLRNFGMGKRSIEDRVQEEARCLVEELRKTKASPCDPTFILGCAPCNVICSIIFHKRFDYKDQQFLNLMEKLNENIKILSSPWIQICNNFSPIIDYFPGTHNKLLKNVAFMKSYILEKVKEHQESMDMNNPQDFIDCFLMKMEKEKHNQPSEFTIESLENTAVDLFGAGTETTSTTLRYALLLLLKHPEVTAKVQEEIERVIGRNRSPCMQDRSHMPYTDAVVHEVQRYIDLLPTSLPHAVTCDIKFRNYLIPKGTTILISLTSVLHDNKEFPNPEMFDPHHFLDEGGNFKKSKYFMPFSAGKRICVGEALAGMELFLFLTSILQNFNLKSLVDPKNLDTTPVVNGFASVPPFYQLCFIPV
Cytochrome P450 2C19, sequence (P33261 whole entry): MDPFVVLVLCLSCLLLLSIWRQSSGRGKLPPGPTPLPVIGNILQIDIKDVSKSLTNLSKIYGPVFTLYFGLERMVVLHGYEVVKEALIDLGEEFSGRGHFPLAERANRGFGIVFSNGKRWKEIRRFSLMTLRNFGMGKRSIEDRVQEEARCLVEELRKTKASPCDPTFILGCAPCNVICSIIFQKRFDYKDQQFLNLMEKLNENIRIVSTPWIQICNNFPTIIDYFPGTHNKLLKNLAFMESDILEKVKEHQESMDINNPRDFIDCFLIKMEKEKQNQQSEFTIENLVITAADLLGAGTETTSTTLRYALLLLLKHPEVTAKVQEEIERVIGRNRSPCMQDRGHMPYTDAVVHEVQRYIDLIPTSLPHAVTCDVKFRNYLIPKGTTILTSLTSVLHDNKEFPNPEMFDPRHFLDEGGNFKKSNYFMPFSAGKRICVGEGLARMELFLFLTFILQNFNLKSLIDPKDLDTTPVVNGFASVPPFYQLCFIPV
Cytochrome P450 2D6, sequence (P10635 whole entry): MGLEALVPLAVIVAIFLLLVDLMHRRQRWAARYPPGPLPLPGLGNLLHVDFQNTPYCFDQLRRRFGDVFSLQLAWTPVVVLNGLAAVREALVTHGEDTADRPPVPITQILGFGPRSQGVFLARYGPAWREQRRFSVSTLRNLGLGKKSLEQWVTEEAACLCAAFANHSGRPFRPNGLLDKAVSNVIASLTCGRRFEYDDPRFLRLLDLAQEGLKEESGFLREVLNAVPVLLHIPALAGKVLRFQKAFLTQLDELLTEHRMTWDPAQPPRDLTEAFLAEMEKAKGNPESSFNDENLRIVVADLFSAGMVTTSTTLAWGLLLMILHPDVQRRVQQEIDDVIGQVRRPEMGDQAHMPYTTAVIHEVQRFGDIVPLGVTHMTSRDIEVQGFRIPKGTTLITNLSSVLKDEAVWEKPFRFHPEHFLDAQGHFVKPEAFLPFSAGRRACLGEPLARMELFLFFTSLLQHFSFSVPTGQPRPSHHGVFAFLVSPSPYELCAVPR
Cytochrome P450 3A4, sequence (P08684 whole entry): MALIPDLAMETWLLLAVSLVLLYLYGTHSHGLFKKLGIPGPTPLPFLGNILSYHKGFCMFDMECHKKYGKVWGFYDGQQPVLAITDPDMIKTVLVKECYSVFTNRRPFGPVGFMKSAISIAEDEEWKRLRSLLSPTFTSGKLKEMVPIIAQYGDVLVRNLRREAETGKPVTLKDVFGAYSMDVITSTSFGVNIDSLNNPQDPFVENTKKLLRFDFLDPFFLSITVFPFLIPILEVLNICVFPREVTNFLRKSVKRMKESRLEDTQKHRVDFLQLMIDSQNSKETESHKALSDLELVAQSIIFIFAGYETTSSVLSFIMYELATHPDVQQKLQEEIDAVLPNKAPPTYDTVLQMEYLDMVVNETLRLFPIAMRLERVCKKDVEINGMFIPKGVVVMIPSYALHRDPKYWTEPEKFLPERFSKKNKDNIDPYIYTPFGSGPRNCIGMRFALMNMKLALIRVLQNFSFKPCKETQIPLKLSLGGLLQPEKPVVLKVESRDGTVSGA

In the case of `Cc1noc(C)c1-c1nc(N2CCN(C)CC2)c2ccccc2n1`, the AC50 (in general, the midpoint of the concentration-response curve, whichever way the signal moves) on Cytochrome P450 2D6 was 39.8 µM (inconclusive).
In the case of `COc1cccc(Cn2c(=O)c(-c3ccc(Cl)cc3)nc3cnc(OC)nc32)c1`, the AC50 at Cytochrome P450 2C19 was 1.26 µM (inconclusive); at Cytochrome P450 2C9 it was 7.94 µM (inconclusive).
As for `C=CC[C@@H]1C=C[C@H](Oc2ccc(C)cc2)[C@H](COC(=O)NCc2cccc3ccccc23)O1`, the values for the AC50 at Cytochrome P450 2D6 and at Cytochrome P450 2C9 were 7.94 µM (inconclusive) and 3.98 µM (inconclusive), respectively.
Consider `Cc1ccccc1C(=O)c1cccn1CC(=O)NCc1ccco1`, for which the AC50 on Cytochrome P450 1A2 is 10 µM (inconclusive).
As to `C=CCn1c(SCC(=O)N2CC(=O)Nc3ccccc32)nc2scc(-c3ccccc3)c2c1=O`, the AC50 at Cytochrome P450 1A2 was 14.1 µM (inconclusive).
Consider `Cc1c(C(=O)N2CCC(Cc3ccccc3)CC2)sc2ncnc(N3CCC(C)CC3)c12`, for which the EC50 in test [1] was > 60 µM (not active); on Streptokinase A, 3.68 µM (active); in test [2], 1.68 µM (active); in the test with Streptococcus it was 60 µM (active); in test [3], 11.6 µM (active).
With `O=C(CSc1nnc(Cn2nnc3ccccc32)o1)Nc1cccc(Cl)c1`, the AC50 is 22.4 µM (inconclusive) on Cytochrome P450 2C19 and 15.8 µM (inconclusive) on Cytochrome P450 2C9.
For `O=C(Nc1ccccc1N1CCOCC1)c1ccc([N+](=O)[O-])cc1`, the AC50 was 15.8 µM (inconclusive) at Cytochrome P450 2D6 and 10 µM (inconclusive) on Cytochrome P450 2C9.
Regarding `Nc1c2c(nc3ccccc13)CCN(Cc1ccccc1)C2`, the EC50 in [4] is > 53 µM (inactive).
In the case of `COC(=O)[C@@]1(Cc2ccc(OC)cc2)[C@H]2c3cc(C(=O)N4CCCC4)n(Cc4c(CO)ncc(C)c4O)c3C[C@H]2CN1C(=O)c1ccccc1`, the values for the AC50 at Cytochrome P450 2D6 and at Cytochrome P450 1A2 were 20 µM (inconclusive) and 25.1 µM (inconclusive), respectively.
Regarding `COc1ccc(CNC(=O)CN2CCN(S(=O)(=O)c3cc(Br)ccc3Br)CC2)cc1OC`, the IC50 in [5] was > 47.1 µM (inactive). Moreover, in test [4], the EC50 is > 53 µM (inactive).
`Cc1cc(OCC(=O)C(C)(C)C)c2c(C)c(C)c(=O)oc2c1`: the IC50 in [5] was > 47.1 µM (inactive). Further, in [4], the EC50 is > 53 µM (inactive).
As for `NC(=S)c1ccc[n+]([C@@H]2O[C@@H](COP(=O)([O-])OP(=O)(O)OC[C@@H]3O[C@@H](n4cnc5c(N)ncnc54)[C@@H](OP(=O)(O)O)[C@H]3O)[C@@H](O)[C@H]2O)c1`, the AC50 on Cytochrome P450 1A2 is 39.8 µM (inconclusive).
For `CCOC(=O)c1c(NC(=O)CCCN2CCOCC2)sc2c1CC(C)(C)OC2`, the AC50 at Cytochrome P450 2C19 is 39.8 µM (inconclusive); on Cytochrome P450 2C9 it was 0.282 µM (inconclusive).
Regarding `Cc1ccc(C)c(Cn2cnc3c(cnn3C(C)(C)C)c2=O)c1`, the results for the AC50 on Cytochrome P450 1A2 and on Cytochrome P450 3A4 were 10 µM (inconclusive) and 0.794 µM (inconclusive), respectively.
For the molecule `CC(C)CN1CC[C@@]2(CCCN(C(=O)Oc3ccccc3)C2)C1`, the AC50 was 15.8 µM (inconclusive) at Cytochrome P450 1A2 and 31.6 µM (inconclusive) at Cytochrome P450 2C9.
Regarding `O=C(Nc1ccccc1)N1CCCC2(CCN(C(=O)c3csnn3)CC2)C1`, the AC50 is 3.98 µM (inconclusive) on Cytochrome P450 2C19, 39.8 µM (inconclusive) at Cytochrome P450 2D6 and 25.1 µM (inconclusive) at Cytochrome P450 1A2.
Consider `O=C(NCC1CCCO1)C(c1cccnc1)N(C(=O)Cc1cccs1)c1ccccc1` (configuration not stated), for which the AC50 at Cytochrome P450 2C19 is 17.8 µM (inconclusive); at Cytochrome P450 2D6 it was 15.8 µM (inconclusive); at Cytochrome P450 2C9, 15.8 µM (inconclusive).
In the case of `COC(=O)[C@@]1(Cc2ccc(OC)cc2)[C@H]2c3cc(C(=O)N4CCCC4)n(CCN4CNCC4=O)c3C[C@H]2CN1C(=O)c1ccccc1`, the AC50 at Cytochrome P450 1A2 is 31.6 µM (inconclusive).
Turning to `Cc1ccc(Oc2ccccc2/C=C2\SC(=O)N(C)C2=O)cc1`, the AC50 at Cytochrome P450 2D6 was 8.91 µM (inconclusive).
For `Oc1c(CN2CCOCC2)cc(-c2ccccc2)cc1CN1CCOCC1`, the AC50 on Cytochrome P450 2C19 is 11.2 µM (inconclusive); at Cytochrome P450 2C9, 28.2 µM (inconclusive).
As to `O=C(CC(=O)NN=C1CCCC1)NCCc1ccccc1`, the AC50 at Cytochrome P450 2C19 was 25.1 µM (inconclusive).
With `CCC(=O)Nc1nnc(C(C)(C)C)s1`, on Cytochrome P450 1A2, the AC50 is 17.8 µM (inconclusive).
With `CCCCCC/C(C)=C1/SC(=S)NC1=O`, the AC50 on Cytochrome P450 2D6 was 28.2 µM (inconclusive).
With `O=[N+]([O-])c1ccc(S(=O)(=O)NCC(c2cccnc2)N2CCc3ccccc32)cc1` (configuration not stated), the EC50 in test [1] is > 60 µM (not active); in test [2], 0.622 µM (active).
As for `CCN1CC(CN(C)Cc2nc(-c3ccc(C(F)(F)F)cc3)oc2C)CC1=O` (configuration not stated), the EC50 is 32.6 µM (active) in [1] and 0.288 µM (active) in [2].
Turning to `COc1ccc(CCNC(=O)c2nnn(CC(=O)Nc3ccccc3C)c2N)cc1OC`, the AC50 at Cytochrome P450 2C19 is 17.8 µM (inconclusive).
For `Cc1cc2c(nc1C)CCCCN2C[C@H](O)CN1CCCc2nc(-c3ccc(Br)cc3)ccc21`, the AC50 at Cytochrome P450 2D6 is 3.16 µM (inconclusive); on Cytochrome P450 2C9, 3.98 µM (inconclusive).
Consider `COc1cc(/C=C2\CCC(C)C3=C(c4cc(OC)c(OC)c(OC)c4)C(C#N)=C(N)OC32)cc(OC)c1OC` (configuration not stated), for which the EC50 in test [4] was > 53 µM (inactive).
For `O=C(CSc1nc2ccccc2c(=O)n1NC(=O)Cc1ccccc1)NCc1ccccc1Cl`, the AC50 at Cytochrome P450 2D6 was 2.82 µM (inconclusive).
Turning to `O=C(Oc1ccc(S(=O)(=O)F)cc1F)c1ccccc1Cl`, the AC50 on Cytochrome P450 1A2 is 5.01 µM (inconclusive).
On to `CCOc1ccccc1NC(=O)C1CCC(=O)N1S(=O)(=O)c1ccc(C)cc1` (configuration not stated), for which the IC50 in test [5] is > 47.1 µM (inactive). For the same molecule, the EC50 in test [4] is > 53 µM (inactive).
On to `[O-]c1c[n+](CC[n+]2cc([O-])on2)no1`, for which, on Cytochrome P450 1A2, the half-maximal activity concentration (AC50) was 2.51 µM (inconclusive).
Consider `Oc1nc2cc(Cl)ccc2c(O)c1-c1ccc(Oc2ccccc2)cc1`, for which the AC50 at Cytochrome P450 1A2 and at Cytochrome P450 3A4 was 10 µM (inconclusive) each time.
Take `O=C(Cn1c(-c2ccccc2)c[n+]2ccsc12)c1ccccc1`: the values for the EC50 in test [1] and in [2] were > 30 µM (not active) and 2.29 µM (active), respectively.
In the case of `O=C(/C=C/c1ccccc1)NNC(=O)c1cccnc1`, the AC50 on Cytochrome P450 2C19 was 31.6 µM (inconclusive); on Cytochrome P450 2C9 it was 7.08 µM (inconclusive).
In the case of `COC(=O)C1=C(C)NC(C)=C(C(=O)OC(C)C)[C@H]1c1cccc2nonc12` [(S)-ISRADIPINE], on Cytochrome P450 1A2, the AC50 was 12.6 µM (inconclusive).
With `CCC(=C(CC)c1ccc(O)cc1)c1ccc(O)cc1` [DIETHYLSTILBESTROL], the AC50 on Cytochrome P450 2C19 is 15.8 µM (inconclusive); at Cytochrome P450 2D6, 15.8 µM (inconclusive); at Cytochrome P450 1A2, 15.8 µM (active); at Cytochrome P450 2C9, 12.6 µM (active).
